Laboratory results from US7989462B2, “4-arylamin-or-4-heteroarylamino-quinazolines and analogs as activators of caspases and inducers of apoptosis and the use thereof” (Myrexis, Inc., priority 2003, dated 2011).

System: T-47D
Assay: Caspase cascade activation in T-47D solid tumor cells (fluorogenic N-(Ac-DEVD)-N'-ethoxycarbonyl-R110 substrate)
Format: cell-based, Human
Conditions: T-47D (24 hr); for EC50: Homo sapiens, T47D, read-out: Caspase Potency EC50; for Caspase Activity Ratio: ratio of net RFU of test compound to that of control samples
Description: Human breast cancer cell lines T-47D and DLD-1 were grown according to media component mixtures designated by American Type Culture Collection+10% FCS (Invitrogen Corporation), in a 5% CO2-95% humidity incubator at 37° C. T-47D and DLD-1 cells were maintained at a cell density between 50 and 80% confluency at a cell density of 0.1 to 0.6×10^6 cells/mL. Cells were harvested at 600×g and resuspended at 0.65×10^6 cells/mL into appropriate media+10% FCS. An aliquot of 22.5 μL of cells was added to a well of a 384-well microtiter plate containing 2.5 μL of a 10% DMSO in RPMI-1640 media solution containing 0.16 to 100 μM of (2-chloro-quinazolin-4-yl)-(4-dimethylaminophenyl)-methylamine or other test compound (0.016 to 10 μM final). An aliquot of 22.5 μL of cells was added to a well of a 384-well microtiter plate containing 2.5 μL of a 10% DMSO in RPMI-1640 media solution without test compound as the control sample. […] After incubation, the samples were removed from the incubator and 25 μL of a solution containing 14 μM of N-(Ac-DEVD)-N′-ethoxycarbonyl-R110 fluorogenic substrate (Cytovia, Inc.; WO99/18856), 20% sucrose (Sigma), 20 mM DTT (Sigma), 200 mM NaCl (Sigma), 40 mM Na PIPES buffer pH 7.2 (Sigma), and 500 μg/mL lysolecithin (Calbiochem) was added. The samples were mixed by agitation and incubated at room temperature. Using a fluorescent plate reader (Model SPECTRAfluor Plus, Tecan), an initial reading (T=0) was made approximately 1-2 min after addition of the substrate solution, employing excitation at 485 nm and emission at 530 nm, to determine the background fluorescence of the control sample. After the 3 h incubation, the samples were read for fluorescence as above (T=3 h).
The Relative Fluorescence Unit values (RFU) were used to calculate the sample readings as follows: RFU(T=3h)−Control RFU(T=0)=Net RFU(T=3h)
The activity of caspase cascade activation was determined by the ratio of the net RFU value for (2-chloro-quinazolin-4-yl)-(4-dimethylaminophenyl)-methylamine or other test compounds to that of control samples. The EC50 (nM) was determined by a sigmoidal dose-response calculation (Prism 3.0, GraphPad Software Inc.).

Row | SMILES | EC50 | Caspase Activity Ratio
1 | COc1ccc(N(C)c2nc(NN)nc3ccccc23)cc1 [Example 32, (2-Hydrazinyl-quinazolin-4-yl)-(4-methoxy-phenyl)-methylamine] | 68 nM | 7.4
2 | COC(=O)Nc1ccc2nc(C)nc(N(C)c3ccc(OC)cc3)c2c1 [Example 33, (6-methoxycarbonylamino-2-methyl-quinazolin-4-yl)-(4-methoxy-phenyl)-methylamine] | 293 nM | 6.7
3 | COc1ccc(Nc2nc(C)nc3ccc([N+](=O)[O-])cc23)cc1OC [Example 34, (3,4-Dimethoxy-phenyl)-(2-methyl-6-nitro-quinazolin-4-yl)-amine] | > 10000 nM | 1.1
4 | COc1ccc(Nc2ncnc3ccccc23)cc1OC [Example 35, (3,4-Dimethoxy-phenyl)-(quinazolin-4-yl)-amine] | > 10000 nM | 1.0
5 | COc1ccc(N(C)c2nc(C)nc3ccc([N+](=O)[O-])cc23)cc1OC [Example 36, (3,4-Dimethoxy-phenyl)-(2-methyl-6-nitro-quinazolin-4-yl)-methylamine] | 1870 nM | 4.0
6 | COc1cc(Nc2nc(C)nc3ccccc23)cc(OC)c1OC [Example 38, (2-Methyl-quinazolin-4-yl)-(3,4,5-trimethoxy-phenyl)-amine] | > 10000 nM | 0.9
7 | COc1ccc(N(C)c2nc(C)nc3ccc(N(C)C(C)=O)cc23)cc1 [Example 40, (6-N-methyl-acetamido-2-methyl-quinazolin-4-yl)-(4-methoxy-phenyl)-methylamine] | 290 nM | 2.7
8 | COc1ccc(N(C)c2nc(NC(C)=O)nc3ccccc23)cc1 [Example 41, (2-Acetamido-quinazolin-4-yl)-(4-methoxy-phenyl)-methylamine] | 27 nM | 3.5
